# Experiments:
# [1] = biological target: Human recombinant PDE2A (hPDE2A) (Homo sapiens (Human), UniProt O00408); assay: In vitro assay PDE2A (SPA, 3H-cGMP); type: biochemical
# Description: Human recombinant PDE2A (hPDE2A) was expressed in Sf9 cells using a recombinant […] baculovirus construct. […] Tested compounds were dissolved and diluted in 100% DMSO to a concentration 100 fold of the final concentration in the assay. Compound dilutions (0.4 μl) were added in 384 well plates to 20 μl of incubation buffer (50 mM Tris pH 7.8, 8.3 mM MgCl2, 1.7 mM EGTA). […] of hPDE2A enzyme in incubation buffer was added and the reaction was started by addition of 10 μl substrate to a final concentration of 10 μM cGMP and 0.01 μCi ^3H-cGMP. The reaction was incubated for 45 minutes at room temperature. […] After sedimentation of the beads during 30 minutes the radioactivity was measured in a Perkin Elmer Topcount scintillation counter and results were expressed as cpm. For blanc values the enzyme was omitted from the reaction and replaced by incubation buffer. Control values were obtained by addition of a final concentration of 1% DMSO instead of compound.
# [2] = biological target: Human recombinant PDE3A (hPDE3A) (Homo sapiens, UniProt Q14432); assay: In vitro assay PDE3A (SPA, 3H-cAMP); type: biochemical; conditions: −log IC50 expressed in mol/L; method describes hPDE3A
# Description: Human recombinant PDE3A (hPDE3A) was supplied as a partially purified insect cell lysate by Scottish Biomedical, it was cloned from human brain and expressed in Sf9 cells. Tested compounds were dissolved and diluted in 100% DMSO to a concentration 100 fold of the final concentration in the assay. Compound dilutions (0.4 μl) were added in 384 well plates to 20 μl of incubation buffer (50 mM Tris pH 7.8, 8.3 mM MgCl2, 1.7 mM EGTA). 10 μl of hPDE3A enzyme in incubation buffer was added and the reaction was started by addition of 10 μl substrate to a final concentration of 0.4 μM cAMP and 2.4 μCi/ml [^3H]-cAMP. The reaction was incubated for 60 min at room temperature. After incubation, the reaction was stopped with 20 μl of stop solution consisting of 17.8 mg/ml PDE SPA (scintillation proximity assay) beads supplemented with 200 mM ZnCl2. After sedimentation of the beads during 30 min the radioactivity was measured in a Perkin Elmer Topcount scintillation counter and results were expressed as cpm. For blanc values the enzyme was omitted from the reaction and replaced by incubation buffer. Control values were obtained by addition of a final concentration of 1% DMSO instead of compound. […]
# [3] = biological target: Rat recombinant PDE10A (rPDE10A2) (Rattus norvegicus (Rat), UniProt Q9QYJ6); assay: In vitro assay PDE10A (SPA, 3H-cAMP); type: biochemical; conditions: −log IC50 expressed in mol/L
# Description: Rat recombinant PDE10A (rPDE10A2) was expressed in Sf9) cells using a recombinant rPDE10A baculovirus construct. Cells were harvested after 48 h of infection and the rPDE10A protein was purified by metal chelate chromatography on Ni-sepharose 6FF. Tested compounds were dissolved and diluted in 100% DMSO to a concentration 100 fold of the final concentration in the assay. Compound dilutions (0.4 μl) were added in 384 well plates to 20 μl of incubation buffer (50 mM Tris pH 7.8, 8.3 mM MgCl2, 1.7 mM EGTA). 10 μl of rPDE10A enzyme in incubation buffer was added and the reaction was started by addition of 10 μl substrate to a final concentration of 60 nM cAMP and 0.008 μCi ^3H-cAMP. The reaction was incubated for 60 minutes at room temperature. After incubation, the reaction was stopped with 20 μl of stop solution consisting of 17.8 mg/ml PDE SPA (scintillation proximity assay) beads. After sedimentation of the beads during 30 minutes the radioactivity was measured in a Perkin Elmer Topcount scintillation counter and results were expressed as cpm. For blanc values the enzyme was omitted from the reaction and replaced by incubation buffer. Control values were obtained by addition of a final concentration of 1% DMSO instead of compound. […]
# Marshall Beagle dogs = assay: Single dose PK/PD PDE2i dog study; type: in vivo
# Source text: For these studies male and female Marshall Beagle dogs (1-6 y) were used: 2 males and 2 females per treatment group. Cerebrospinal fluid (CSF) was sampled from the lateral ventricle via a needle guide cannula in instrumented conscious animals.
# Baseline CSF and blood samples were taken 2 to 5 days before dosing. The dogs are fasted overnight and the next morning dosed on an empty stomach (orally by gavage). At predetermined time points after dosing blood and/or CSF was collected for the measurement of compound levels and cGMP. Analysis of cGMP was done by LCMS/MS: 25 μl CSF was diluted with 125 μl artificial CSF (STIL (20 ng/ml)), centrifugated and 25 μl was injected. The systems used were: a Shimadzu SIL-30 UPLC-system (Hypercarb (50 mm×1 mm (3 μm)) column, basic (10 mM ammonium carbonate) aqueous-acetonitrile gradient (5% to 98% in 5.5 minutes) at a flow-rate of 250 μl/min) and an API Sciex 5500 system equiped with an ESI source (selective MRM transition (m/z 346.1→152.1 (75 msec dwelltime)). The results of this study are summarized in FIG. 7. After a single dose of compound 1 the following observations were made: slight to moderate tremors in 3/8 animals at 0.5 mg/kg; sedation and/or tremors in 6 out of 7 animals at 1 mg/kg (one animal was not dosed due to limited stock of the compound). […] Limited individual data in the vehicle group of PDE2 H-2 (n=2 at 1, 4 and 8 h) due to analytical errors.
# [4] = tested on: dentate gyrus of anesthetized adult Sprague Dawley; assay: LTP / synaptic plasticity in dentate gyrus of anesthetized rats; type: in vivo, rat
# [5] = 40 mg/kg SC, 90-120 min post-tetanization, relative to baseline 100%
# Human recombinant PDE2A (hPDE2A), sequence (O00408 whole entry): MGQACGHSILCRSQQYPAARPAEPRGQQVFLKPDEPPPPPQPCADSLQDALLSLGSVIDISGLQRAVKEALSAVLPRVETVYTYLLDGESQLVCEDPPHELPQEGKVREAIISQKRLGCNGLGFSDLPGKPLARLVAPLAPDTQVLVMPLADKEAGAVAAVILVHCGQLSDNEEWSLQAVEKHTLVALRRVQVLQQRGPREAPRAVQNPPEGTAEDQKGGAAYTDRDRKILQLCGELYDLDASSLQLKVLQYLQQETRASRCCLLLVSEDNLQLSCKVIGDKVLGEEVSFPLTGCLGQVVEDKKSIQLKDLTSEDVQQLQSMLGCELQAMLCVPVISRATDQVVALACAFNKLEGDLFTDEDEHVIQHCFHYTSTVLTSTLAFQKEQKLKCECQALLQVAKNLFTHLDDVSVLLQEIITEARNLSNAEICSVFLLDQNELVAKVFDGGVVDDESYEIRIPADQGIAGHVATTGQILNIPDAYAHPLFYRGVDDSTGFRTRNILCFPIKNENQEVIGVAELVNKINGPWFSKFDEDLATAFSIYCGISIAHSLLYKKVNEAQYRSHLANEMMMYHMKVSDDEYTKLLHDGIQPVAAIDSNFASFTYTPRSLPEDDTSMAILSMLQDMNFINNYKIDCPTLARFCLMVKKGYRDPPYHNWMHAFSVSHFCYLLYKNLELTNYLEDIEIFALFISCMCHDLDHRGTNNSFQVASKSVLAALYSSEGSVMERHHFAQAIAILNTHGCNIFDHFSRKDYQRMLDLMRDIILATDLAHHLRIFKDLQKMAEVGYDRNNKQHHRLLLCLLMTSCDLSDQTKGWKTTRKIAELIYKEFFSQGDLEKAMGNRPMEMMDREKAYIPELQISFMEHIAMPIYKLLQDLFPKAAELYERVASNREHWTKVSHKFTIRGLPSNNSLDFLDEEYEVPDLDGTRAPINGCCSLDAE
# Human recombinant PDE3A (hPDE3A), sequence (Q14432 whole entry, looked up): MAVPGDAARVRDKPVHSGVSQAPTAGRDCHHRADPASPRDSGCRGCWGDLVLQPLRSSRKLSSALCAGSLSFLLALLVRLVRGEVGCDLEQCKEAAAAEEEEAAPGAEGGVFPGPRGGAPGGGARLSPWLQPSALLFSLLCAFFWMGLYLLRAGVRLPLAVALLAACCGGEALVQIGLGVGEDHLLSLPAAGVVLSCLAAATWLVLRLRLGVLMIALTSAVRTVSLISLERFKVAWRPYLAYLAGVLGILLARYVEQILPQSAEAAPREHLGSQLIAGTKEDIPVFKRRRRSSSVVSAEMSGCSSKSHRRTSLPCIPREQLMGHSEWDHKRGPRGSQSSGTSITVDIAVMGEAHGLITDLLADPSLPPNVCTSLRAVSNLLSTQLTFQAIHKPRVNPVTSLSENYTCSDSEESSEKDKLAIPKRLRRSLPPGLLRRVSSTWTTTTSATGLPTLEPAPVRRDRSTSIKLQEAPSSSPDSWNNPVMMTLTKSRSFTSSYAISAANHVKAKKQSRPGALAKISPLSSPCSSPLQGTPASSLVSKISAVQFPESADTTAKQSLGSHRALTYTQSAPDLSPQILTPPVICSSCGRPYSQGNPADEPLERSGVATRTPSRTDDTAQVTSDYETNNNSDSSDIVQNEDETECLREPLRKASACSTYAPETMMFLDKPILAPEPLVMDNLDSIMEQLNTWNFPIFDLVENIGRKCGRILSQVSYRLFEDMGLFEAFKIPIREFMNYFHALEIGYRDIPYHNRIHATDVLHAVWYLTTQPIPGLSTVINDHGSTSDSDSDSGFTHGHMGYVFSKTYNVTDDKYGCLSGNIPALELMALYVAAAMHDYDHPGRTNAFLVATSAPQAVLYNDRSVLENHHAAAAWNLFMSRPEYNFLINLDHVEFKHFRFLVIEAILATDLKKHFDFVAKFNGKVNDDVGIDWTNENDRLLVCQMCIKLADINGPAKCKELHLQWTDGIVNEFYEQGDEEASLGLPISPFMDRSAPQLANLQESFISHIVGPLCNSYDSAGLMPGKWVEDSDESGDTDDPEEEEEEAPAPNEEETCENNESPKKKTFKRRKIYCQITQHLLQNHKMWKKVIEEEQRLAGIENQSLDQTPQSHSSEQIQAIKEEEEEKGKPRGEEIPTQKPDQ
# Rat recombinant PDE10A (rPDE10A2), sequence (Q9QYJ6 whole entry): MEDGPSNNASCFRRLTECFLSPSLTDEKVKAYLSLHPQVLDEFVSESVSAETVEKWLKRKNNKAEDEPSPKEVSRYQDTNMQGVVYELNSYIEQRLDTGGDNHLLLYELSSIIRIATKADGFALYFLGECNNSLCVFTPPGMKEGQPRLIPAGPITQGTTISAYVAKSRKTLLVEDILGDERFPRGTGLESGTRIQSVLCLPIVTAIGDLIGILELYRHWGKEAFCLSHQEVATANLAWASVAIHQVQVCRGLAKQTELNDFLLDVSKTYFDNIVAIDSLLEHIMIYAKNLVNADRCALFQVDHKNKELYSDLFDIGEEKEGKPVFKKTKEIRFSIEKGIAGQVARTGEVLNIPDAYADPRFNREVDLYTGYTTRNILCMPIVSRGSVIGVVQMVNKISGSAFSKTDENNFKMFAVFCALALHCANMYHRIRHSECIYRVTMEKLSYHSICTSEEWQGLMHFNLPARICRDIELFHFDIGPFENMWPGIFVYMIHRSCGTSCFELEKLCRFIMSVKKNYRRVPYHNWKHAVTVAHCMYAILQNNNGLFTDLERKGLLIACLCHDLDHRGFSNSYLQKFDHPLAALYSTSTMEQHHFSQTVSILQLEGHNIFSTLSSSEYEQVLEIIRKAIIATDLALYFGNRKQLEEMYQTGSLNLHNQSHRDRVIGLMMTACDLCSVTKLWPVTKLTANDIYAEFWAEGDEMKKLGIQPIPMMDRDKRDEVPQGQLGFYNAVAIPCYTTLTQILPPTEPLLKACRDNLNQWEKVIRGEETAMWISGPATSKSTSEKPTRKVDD
compound,measurement,setting,value
Cc1cc(C(=O)N2CC[C@@H](C)[C@H](c3cc(C(F)F)nc4ncnn34)C2)cc(C)n1 [Compound 1],IC50,"[1]; hPDE2A, 10 μM cGMP",0.95 nM
same,pIC50 (PDE2A),[1]; −log IC50 expressed in mol/L,9.07
same,pIC50 PDE3B,[2],5.21
same,pIC50 PDE10A2,[3],7.06
same,Plasma pharmacokinetics dose linearity,Marshall Beagle dogs; single oral dose,non-dose linearity
same,slight to moderate tremors,Marshall Beagle dogs; single oral dose 0.5 mg/kg,3/8
same,sedation and/or tremors,Marshall Beagle dogs; single oral dose 1 mg/kg,6 out of 7
same,cGMP in the CSF,"Marshall Beagle dogs; single oral dose, CSF from lateral ventricle",dose related increase
same,PSA slopes,"[4]; 40 mg/kg SC, 0-30 min after tetanization, relative to baseline 100%",164±13%
same,PSA amplitude,[4]; [5],179±20%
same,fEPSP slope,[4]; [5],137±24%
same,duration of enhanced synaptic potentiation,"[4]; 40 mg/kg SC, LTP induction paradigm",> 2 h
same,Basal synaptic transmission,"[4]; baseline pre-tetanus, versus vehicle-treated control",not affected
same,LTP in vivo,[4]; overall conclusion,facilitates LTP in vivo

# Source: patent US10947239B2, “[1,2,4]triazolo[1,5-a]pyrimidin-7-yl compound” (Janssen Pharmaceutica NV, priority 2015, dated 2021)
